Reference: US11858905B1, “Cathepsin L inhibitors” (priority 2023, dated 2024)
Like-named read-outs stand apart in the source and are kept apart here.

Assays:
human CatL = human CatL (Homo sapiens (Human), UniProt P07711); test: Human Cathepsin L (CatL) enzymatic assay; assay type: biochemical
Description: Human Cathepsin L (CatL) Enzymatic Assay
60 μL of the compounds were added to 384-well dilution plate. The compound solution was diluted for 1:3 in succession in DMSO for each column for 10 pts. 0.05 μL diluted compound solution was added in each row to 384 assay plates (Corning 4514) using Echo (LABCYTE 655), each column containing 2 replicates. 5 μL working solution of human CatL enzyme (Abcam #ab81780) was added to 384-well assay plate, centrifuge 1000 rpm for 1 min. The mixture was incubated at […] for 15 min, then add 5 μL working solution of CatL substrate (Genscript #C7360HB140_5) to initiate the reaction (CatL: 0.05 nM, Substrate: 500 nM). Incubate at […] for 30 min. Reading Ex370 nm and Em460 nm fluorescence signals with BMG CLARIO Star Plusaucu. Percent inhibition for each compound was calculated and IC50 (half maximal inhibitory concentration) was fitted from non-linear regression by XLfit 5.5.0.

SARS-CoV-2 PsVs = test: microbe, parasite or virus in culture; assay type: cell-based; details: Severe acute respiratory syndrome coronavirus 2, Vero C1008, 24 h; for activity at 0.5 µM: read-out: % Infection rate at 500 nM; for activity at 5 µM: read-out: % Infection rate at 5 uM
[1] = CatL 0.05 nM, substrate 500 nM, pH 5.5, read-out: Enzymatic inhibition IC50
[2] = summary of Table 2, read-out: IC50 for inhibiting CatL

human CatL, sequence (P07711 whole entry, looked up): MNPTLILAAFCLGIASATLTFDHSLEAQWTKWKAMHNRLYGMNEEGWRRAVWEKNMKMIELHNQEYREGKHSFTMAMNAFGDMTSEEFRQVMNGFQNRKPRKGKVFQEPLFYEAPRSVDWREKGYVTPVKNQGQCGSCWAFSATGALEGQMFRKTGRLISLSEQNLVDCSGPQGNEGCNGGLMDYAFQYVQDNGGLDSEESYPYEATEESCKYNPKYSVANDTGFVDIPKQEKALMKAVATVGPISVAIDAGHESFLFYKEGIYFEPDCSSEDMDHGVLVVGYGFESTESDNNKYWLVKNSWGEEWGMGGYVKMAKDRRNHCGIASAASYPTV

Structure (SMILES) | IC50 (human CatL; [1]) | activity at 0.5 µM (SARS-CoV-2 PsVs) | activity at 5 µM (SARS-CoV-2 PsVs) | IC50 (human CatL; [2])
Cc1nn(C2CC2)cc1C(=O)N[C@@H](Cc1nc2ccccc2o1)C(=O)NC1(C#N)CC1 [Compound 16, (S)—N-(3-(benzo[d]oxazol-2-yl)-1-((1-cyanocyclopropyl)amino)-1-oxopropan-2-yl)-1-cyclopropyl-3-methyl-1H-pyrazole-4-carboxamide] | 0.139 µM |  |  | 
N#CC1(NC(=O)[C@H](Cc2nc3ccc(C(F)(F)F)cc3o2)NC(=O)c2cccc(Cl)c2)CC1 [Compound 11, (S)-3-chloro-N-(1-((1-cyanocyclopropyl)amino)-1-oxo-3-(6-(trifluoromethyl)benzo[d]oxazol-2-yl)propan-2-yl)benzamide] | 0.0946 µM | 86% | 81% | 
N#CC1(NC(=O)[C@H](Cc2nc3ccccc3s2)NC(=O)c2cccc(Cl)c2)CC1 [Compound 31, (S)—N-(3-(benzo[d]thiazol-2-yl)-1-((1-cyanocyclopropyl)amino)-1-oxopropan-2-yl)-3-chlorobenzamide] | 0.0117 µM | 67% | 10% | < 0.05 µM
CC(C)(C)c1cc(C(=O)N[C@@H](Cc2nc3cc(F)cc(Cl)c3o2)C(=O)NC2(C#N)CC2)n(C2COC2)n1 [Compound 22, (S)-3-(tert-butyl)-N-(3-(7-chloro-5-fluorobenzo[d]oxazol-2-yl)-1-((1-cyanocyclopropyl)amino)-1-oxopropan-2-yl)-1-(oxetan-3-yl)-1H-pyrazole-5-carboxamide] | 0.0053 µM | 33% | 13% | 
Cn1c(C[C@H](NC(=O)c2cccc(Cl)c2)C(=O)NC2(C#N)CC2)nc2ccccc21 [Compound 32, (S)-3-chloro-N-(1-((1-cyanocyclopropyl)amino)-3-(1-methyl-1 H-benzo[d]imidazol-2-yl)-1-oxopropan-2-yl)benzamide] | > 1 µM | 101% | 95% | 
CC(C)(C)c1cc(C(=O)N[C@@H](Cc2nc3cccc(Cl)c3o2)C(=O)NC2(C#N)CC2)n(C2CC2)n1 [Compound 20, (S)-3-(tert-butyl)-N-(3-(7-chlorobenzo[d]oxazol-2-yl)-1-((1-cyanocyclopropyl)amino)-1-oxopropan-2-yl)-1-cyclopropyl-1H-pyrazole-5-carboxamide] | 0.0042 µM | 40% | 6.3% | 
Cc1cccc(-c2ccc3nc(C[C@H](NC(=O)c4cc(C5(C)CC5)nn4C4CC4)C(=O)NC4(C#N)CC4)oc3c2)n1 [Compound 44, (S)—N-(1-((1-cyanocyclopropyl)amino)-3-(6-(6-methylpyridin-2-yl)benzo[d]oxazol-2-yl)-1-oxopropan-2-yl)-1-cyclopropyl-3-(1-methylcyclopropyl)-1H-pyrazole-5-carboxamide] | 0.0165 µM | 82% | 55.5% | < 0.05 µM
CC1(c2cc(C(=O)N[C@@H](Cc3nc4ccc(-c5ccnc(C(F)F)c5)cc4o3)C(=O)NC3(C#N)CC3)n(C3CC3)n2)CC1 [Compound 47, (S)—N-(1-((1-cyanocyclopropyl)amino)-3-(6-(2-(difluoromethyl)pyridin-4-yl)benzo[d]oxazol-2-yl)-1-oxopropan-2-yl)-1-cyclopropyl-3-(1-methylcyclopropyl)-1H-pyrazole-5-carboxamide] | 0.0066 µM | 56% | 15.9% | 
N#CC1(NC(=O)[C@H](Cc2nc3cc(C(F)(F)F)ccc3o2)NC(=O)c2cccc(Cl)c2)CC1 [Compound 10, (S)-3-chloro-N-(1-((1-cyanocyclopropyl)amino)-1-oxo-3-(5-(trifluoromethyl)benzo[d]oxazol-2-yl)propan-2-yl)benzamide] | 0.0515 µM | 97% | 96% | 
N#CC1(NC(=O)[C@H](Cc2nc3cccc(C(F)(F)F)c3o2)NC(=O)c2cccc(Cl)c2)CC1 [Compound 12, (S)-3-chloro-N-(1-((1-cyanocyclopropyl)amino)-1-oxo-3-(7-(trifluoromethyl)benzo[d]oxazol-2-yl)propan-2-yl)benzamide] | 0.235 µM |  |  | 
Cc1cc(-c2ccc3nc(C[C@H](NS(=O)(=O)c4cccc(Br)c4)C(=O)NCC#N)oc3c2)ccn1 [Compound 36, (S)-2-((3-bromophenyl)sulfonamido)-N-(cyanomethyl)-3-(6-(2-methylpyridin-4-yl)benzo[d]oxazol-2-yl)propanamide] | 0.0793 µM | 110% | 125% | 
Cc1cccc(C(=O)N[C@@H](Cc2nc3ccccc3o2)C(=O)NC2(C#N)CC2)n1 [Compound 14, (S)—N-(3-(benzo[d]oxazol-2-yl)-1-((1-cyanocyclopropyl)amino)-1-oxopropan-2-yl)-6-methylpicolinamide] | 0.534 µM | 103% | 97% | 
Cn1nc(C(C)(C)C)cc1C(=O)N[C@@H](Cc1nc2ccccc2o1)C(=O)NC1(C#N)CC1 [Compound 13, (S)—N-(3-(benzo[d]oxazol-2-yl)-1-((1-cyanocyclopropyl)amino)-1-oxopropan-2-yl)-3-(tert-butyl)-1-methyl-1H-pyrazole-5-carboxamide] | 0.0039 µM | 55% | 10% | < 0.01 µM
CC(=O)Nc1ccc(-c2ccc3nc(C[C@H](NC(=O)c4cc(C5(C)CC5)nn4C4CC4)C(=O)NC4(C#N)CC4)oc3c2)cn1 [Compound 41, (2S)—N-(1-cyanocyclopropyl)-2-{[2-cyclopropyl-5-(1-methylcyclopropyl)pyrazol-3-yl]formamido}-3-[6-(6-acetamidopyridin-3-yl)-1,3-benzoxazol-2-yl]propanamide] | 0.0053 µM | 90% | 57.7% | 
CN1CCN(c2ccc3nc(C[C@H](NC(=O)c4cccc(Cl)c4)C(=O)NC4(C#N)CC4)oc3c2)C(=O)C1 [Compound 30, (S)-3-chloro-N-(1-((1-cyanocyclopropyl)amino)-3-(6-(4-methyl-2-oxopiperazin-1-yl)benzo[d]oxazol-2-yl)-1-oxopropan-2-yl)benzamide] | 0.124 µM | 99% | 101% | 
N#CC1(NC(=O)[C@H](Cc2nc3cc(Cl)ccc3o2)NC(=O)c2cccc(Cl)c2)CC1 [Compound 8, (S)-3-chloro-N-(3-(5-chlorobenzo[d]oxazol-2-yl)-1-((1-cyanocyclopropyl)amino)-1-oxopropan-2-yl)benzamide] | 0.0174 µM | 92% | 69% | 
Cc1cc(-c2ccc3nc(C[C@H](NS(=O)(=O)c4cccc(Cl)c4)C(=O)NCC#N)oc3c2)ccn1 [Compound 37, (S)-2-((3-chlorophenyl)sulfonamido)-N-(cyanomethyl)-3-(6-(2-methylpyridin-4-yl)benzo[d]oxazol-2-yl)propanamide] | 0.125 µM | 96% | 104% | 
Cc1nn(C2CC2)cc1C(=O)N[C@@H](Cc1nc2cc(F)c(F)cc2o1)C(=O)NC1(C#N)CC1 [Compound 17, (S)—N-(1-((1-cyanocyclopropyl)amino)-3-(5,6-difluorobenzo[d]oxazol-2-yl)-1-oxopropan-2-yl)-1-cyclopropyl-3-methyl-1H-pyrazole-4-carboxamide] | 0.201 µM |  |  | 
